Common to all, as to assay: NCI tumour cell line growth inhibition, 48 h
Assay [1] deals with SK-MEL-28 melanoma.
For assay [2], the system named is NCI/ADR-RES ovarian.
Assay [3] concerns RPMI-8226 leukemia.
In assay [4] the test system is OVCAR-3 ovarian.
The test system of assay [5] is SF-268 CNS.
Assay [6] relates to IGROV1 ovarian.
The subject of assay [7] is SF-295 CNS.
For assay [8], the system named is EKVX NSCLC.
For assay [9], the system named is SW-620 colon.
Assay [10] deals with KM12 colon.

Each structure is given as a SMILES string. Values joined by “and” are separate entries in the source; they are usually repeats but may differ in a detail not shown here. Identical values can stand only once.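 Results reflect a 48-hour exposure of cells in 96-well plates to compound at five concentrations. The concentration for 50% growth inhibition is given as GI50. TGI denotes the concentration required for complete inhibition of growth.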

Regarding `CC(OP(=O)(O)O)C(N)C(=O)O` (centres undefined), the TGI in assay [1], in assay [2], in assay [3], in [4], in [5] and in assay [6] was > 100 µM throughout. Moreover, the TGI in assay [7], in [8], in [9] and in [10] was > 100 µM throughout.
With `O=c1cc(-c2ccccc2)oc2c1ccc1[nH]c3ccccc3c(=O)c12`, the TGI in [1], in [2], in [3], in [4], in assay [5] and in assay [6] was > 100 µM each time. The TGI in assay [7], in assay [8], in [9] and in assay [10] was > 100 µM in each case.
As to `Cc1cc2c(c(C(=O)NCC(=O)O)c1)Oc1c(cc(C)cc1C(=O)NCC(=O)O)S2`, the TGI in [1], in assay [2], in [3], in assay [4], in assay [5] and in [6] was > 100 µM each time. The TGI in [7], in assay [8], in assay [9] and in assay [10] was > 100 µM throughout.
Consider `Cc1ccc(N2C(=O)C3CSCN3C2=O)cc1` (centres undefined), for which the GI50 in [1] was > 100 µM. The TGI was > 100 µM and 31.2 µM in assay [1]; > 100 µM in assay [2]; > 100 µM in assay [3]; > 100 µM in assay [4]; > 100 µM in assay [5]; > 100 µM in [6]. For the same compound, the TGI in [7], in assay [8], in assay [9] and in [10] was > 100 µM throughout.
In the case of `O=c1cc(N2CCOCC2)n2c(ccc3ccccc32)n1`, the TGI in assay [2], in [3], in assay [4], in assay [5], in [6] and in assay [7] was > 100 µM in each case. Besides, the TGI in assay [8], in [9] and in assay [10] was > 100 µM in each case.
With `Oc1ccc2ccccc2c1OCc1nnc(CCCCCCCCc2nnc(COc3c(O)ccc4ccccc34)n2Nc2ccccc2)n1Nc1ccccc1`, the TGI in [1] is > 87.7 µM; in assay [2] it was 56.9 µM; in [3], > 100 µM; in [4], 32.1 µM; in [5], > 100 µM; in [6] it was > 81.8 µM. Besides, the TGI in assay [7] is > 100 µM; in assay [8], > 76.8 µM; in [9], > 100 µM; in assay [10] it was 33 µM.
With `Clc1ccc(-c2nn3c(COc4cccc(OCc5nnc6sc(-c7ccc(Cl)cc7)nn56)c4)nnc3s2)cc1`, the TGI is 35.9 µM in [1]; > 100 µM in assay [2]; > 100 µM in assay [3]; 44 µM in [4]; > 100 µM in assay [5]; > 100 µM in assay [6]. The TGI was > 100 µM in [7], 56.8 µM in assay [8], > 100 µM in assay [9] and > 100 µM in assay [10].
Regarding `COc1c(C)c(C/C=C(\C)CCCC(C)CCCC(C)CCCC(C)C)c(OC)c2ccccc12` (centres undefined), the TGI in assay [2], in [3], in assay [4], in [5], in assay [6] and in [7] was > 100 µM each time. Besides, the TGI in assay [8], in assay [9] and in assay [10] was > 100 µM in each case.
For the compound `N/N=C(/N)SCCCCCCCCCCS/C(N)=N/N`, the TGI in assay [1] was > 100 µM; in [2], 58.2 µM; in assay [3], 70.8 µM; in assay [4] it was 91.1 µM; in assay [5], > 100 µM; in [6] it was 69.9 µM. In addition, the TGI in [7] is 60.9 µM; in assay [8] it was > 100 µM; in [9], 36.6 µM; in assay [10] it was 67.3 µM.
`CC/C=C/c1cc2c(cc1O)CCC1C2CC[C@@]2(C)C1CC[C@@H]2O` (some centres undefined): the TGI in assay [1] was determined as 24.1 µM; in [2] it was 5.67 µM; in assay [3], 6.46 µM; in assay [4] it was 1.6 µM; in [5], 24.8 µM; in assay [6], 17.5 µM. Besides, the TGI in assay [7] came to 1.48 µM; in [8], 14.3 µM; in assay [9], 14.2 µM; in assay [10] it was 15 µM.
On to `O=S(=O)(/N=S(/Nc1ccccc1)C(F)(F)Cl)c1ccccc1` (centres undefined), for which the TGI in assay [1], in [2], in assay [3], in assay [4], in assay [5] and in assay [6] was > 100 µM in each case. Also, the TGI in [7], in [8], in [9] and in [10] was > 100 µM in each case.
As for `COc1ccc(/C=C2\CCCc3ccccc3C2=O)cc1`, the TGI in [1] is > 100 µM; in assay [2], > 100 µM; in assay [3], 21.5 µM; in [4], 0.422 µM; in [5], 5.53 µM; in assay [6] it was > 100 µM. For the same compound, the values for the TGI in assay [8], in assay [9] and in [10] were > 100 µM, > 100 µM and 17.6 µM, respectively.
As to `CSc1nnc(SCc2nn3c(=O)cc(C)nc3s2)s1`, the TGI in assay [1], in assay [2], in assay [3], in [4], in assay [5] and in assay [6] was > 100 µM throughout. Further, the TGI in assay [7], in assay [8], in assay [9] and in [10] was > 100 µM throughout.
On to `COc1ccc(/C=c2\[nH]c3nc(=O)c(N4CCCCC4)c(N)n3c2=O)cc1`, for which the TGI in [1], in assay [2], in [3], in [5], in [6] and in assay [7] was > 100 µM throughout. For the same compound, the TGI in [8], in assay [9] and in assay [10] was > 100 µM in each case.
Consider `O=C1C=CC2(O[C@H](C3CCCCC3)[C@@H](C3CCCCC3)O2)C(SC(=O)c2ccccc2)C1` (some centres undefined), for which the TGI in assay [1] came out at 3.15 µM; in assay [2], 13.1 µM; in assay [3], 2.22 µM; in assay [4], 2.04 µM; in assay [5], 5.89 µM; in assay [6] it was 9.1 µM. The TGI in assay [7] was determined as 14.5 µM; in assay [8], 12.7 µM; in assay [9], 16.8 µM; in assay [10], 18.3 µM.
Regarding `COC(=O)c1c2c(cc3c1CC1(Cc4cc5c(c(C)c4C1)CCC5)C3)CCC2` (centres undefined), the TGI in [1], in [2], in assay [3], in [4], in [5] and in [6] was > 100 µM each time. Moreover, the TGI in assay [7], in assay [8] and in assay [9] was > 100 µM throughout.
For `Cc1cc(N2CCCCC2)nc2ccc(Cc3ccc4nc(N5CCCCC5)cc(C)c4c3)cc12`, the TGI in assay [1], in assay [2], in [3], in assay [4], in assay [5] and in assay [6] was > 100 µM throughout. In addition, the TGI in assay [7], in assay [8], in [9] and in [10] was > 100 µM throughout.
As for `O=c1[nH]cc(N=Cc2cc(Cl)ccc2O)c(=O)[nH]1`, the TGI in assay [1] is 70.1 µM; in [2], 53.6 µM; in [3], 53.3 µM; in assay [4], > 100 µM; in assay [5] it was 47.3 µM; in assay [6] it was 52.6 µM. The TGI in assay [7] was 42.1 µM; in [8] it was > 100 µM; in [10], > 100 µM.
Regarding `CN(C)C=N[C@@H](C(=O)O)c1ccccc1`, the TGI in [1], in assay [2], in [3], in assay [4], in assay [5] and in assay [6] was > 100 µM throughout. Further, the TGI in [7], in [8] and in [9] was > 100 µM in each case.
Regarding `COc1ccc(-n2c(N)c(C#N)c(C#N)c2-c2ccco2)cc1`, the TGI in assay [2], in assay [3], in assay [4], in assay [5], in assay [6] and in assay [7] was > 100 µM each time. Moreover, the TGI in assay [8], in [9] and in assay [10] was > 100 µM throughout.
Turning to `O=c1c2ccccc2nc(N/N=C/c2ccc([N+](=O)[O-])cc2)n1-c1ccccc1`, the TGI in assay [1] is 30.1 µM; in assay [2] it was > 100 µM; in assay [3], > 100 µM; in [4], > 100 µM; in [5], 59.3 µM; in assay [6], > 100 µM. Besides, the TGI was 62.2 µM in [7], 79.6 µM in assay [8] and > 100 µM in assay [10].
With `Cc1cc(C)nc(NS(=O)(=O)c2ccc(NNc3c4ccccc4nc4c(C(=O)Nc5ccc(S(=O)(=O)Nc6cc(C)on6)cc5)cccc34)cc2)n1`, the TGI in [2] is > 100 µM; in assay [3], > 100 µM; in assay [4], 47.2 µM; in [5], 81.3 µM; in [6], > 100 µM; in [7] it was > 100 µM. Also, the TGI in assay [8] is 65.7 µM; in assay [9], > 100 µM; in assay [10], > 100 µM.
Consider `O=Nc1c(-c2c(O)[nH]c3ccc(I)cc23)[nH]c2ccccc12`, for which the TGI was > 100 µM in [1]; > 63.4 µM in [2]; 4.67 µM in [3]; > 57.3 µM in [4]; 25.9 µM in assay [5]; 8.51 µM in assay [6]. Moreover, the values for the TGI in assay [7] and in assay [8] were > 71.7 µM and > 69.7 µM, respectively.
Consider `COC(=O)/C=C\n1nc(Br)c(=O)[nH]c1=O`, for which the TGI in assay [1], in [2], in assay [3], in assay [4], in assay [5] and in assay [6] was > 100 µM each time. The TGI in assay [8], in assay [9] and in assay [10] was > 100 µM in each case.
Take `Cc1c(OCc2cccc3ccccc23)ccc2c(=O)cc(SCCN3CCOCC3)oc12`: the TGI in assay [1], in assay [2], in assay [4], in [5], in assay [6] and in assay [7] was > 100 µM throughout. For the same compound, the TGI in assay [8], in assay [9] and in assay [10] was > 100 µM in each case.
Regarding `COc1cc2c3c(n(C)c(=O)c2cc1OC)-c1cc2c(cc1/C3=C\CCCCCBr)OCO2`, the TGI in [1] was 3.24 µM; in assay [2], > 100 µM; in [3] it was 26 µM; in [5], > 100 µM; in assay [6] it was 0.605 µM; in assay [7], > 100 µM. The TGI in assay [8], in assay [9] and in [10] was > 100 µM in each case.
Turning to `O=C(O)CSC1=NNC2(C(=O)N1)c1ccccc1-c1ccccc12`, the TGI in [1], in [2], in assay [3], in assay [5], in [6] and in assay [7] was > 10 µM in each case. Moreover, the TGI in assay [8], in assay [9] and in assay [10] was > 10 µM in each case.
`COc1cccc2c1OC1c3ccccc3OCC1(O)C2` (centres undefined): the TGI in [2], in [3], in assay [4], in assay [5], in assay [6] and in assay [7] was > 100 µM in each case. The TGI in assay [8], in [9] and in assay [10] was > 100 µM throughout.
